ChEMBL document CHEMBL4316584, “All that glitters is not gold: Panning cytotoxic natural products and derivatives with a fused tricyclic backbone by the estimation of their leadlikeness for cancer treatment” (Eur J Med Chem, 2019)

How the values were obtained:
Type in all cases: functional, cell-based
A549 = experiment: Cytotoxicity against human A549 cells after 48 hrs by MTT assay
HepG2 = experiment: Cytotoxicity against human HepG2 cells after 48 hrs by MTT assay; details: HepG2, 48 h
MCF7 = experiment: Cytotoxicity against human MCF7 cells after 48 hrs by MTT assay; details: MCF7, 48 h

Structure (SMILES)	IC50 (A549; Homo sapiens, A549, 48 h) [µM]	IC50 (MCF7) [µM]	other results
CC(C)=CCc1c(O)c(CC=C(C)C)c2oc3ccc(O)cc3c(=O)c2c1O	8.85		
CC(C)=CCC/C(C)=C/COc1cc(O)c2c(c1)C(=O)c1cc(C)cc(O)c1C2=O			IC50 (HepG2): 15 µM
CC(C)=CCc1c(O)c(CC=C(C)C)c2oc3cc(O)ccc3c(=O)c2c1O			IC50 (HepG2): 18.7 µM
O=C1C(=O)c2cccnc2-c2ncccc21		0.58	
CC(C)c1cc2c(cc1O)[C@@]1(C)CCC[C@](C)(CO)[C@@H]1CC2	14		
O=c1c2cc(O)ccc2oc2cc(O)cc(O)c12			IC50 (HepG2): 18.3 µM
O=c1c2ccccc2oc2cc(O)ccc12	14.6		
O=c1c2ccccc2oc2cc(O)cc(O)c12			IC50 (HepG2): 19.5 µM
COC(=O)c1c(O)ccc2oc3cc(C)cc(O)c3c(=O)c12	5.2		
Cc1cc(O)c2c(c1)C(=O)c1cc(O)c(CN3CCOCC3)c(O)c1C2=O			IC50 (HepG2): 17.9 µM
COc1ccc(C(=O)/C=C/c2cc3c([nH]c4ccccc43)c(-c3ccc(F)cc3)n2)cc1	8.43		
O=C(/C=C/c1cc2c([nH]c3ccccc32)c(-c2ccc(C(F)(F)F)cc2)n1)c1ccco1	2.57		
COc1ccc(C(=O)/C=C/c2cc3c([nH]c4ccccc43)c(-c3ccc(F)c(OC)c3)n2)cc1	5.1		
COc1cc(-c2nc(/C=C/C(=O)c3ccc(N)cc3)cc3c2[nH]c2ccccc23)cc(OC)c1OC	11.8	14.6	
CC(=O)N1N=C(c2ccco2)CC1c1cc2c([nH]c3ccccc32)c(-c2ccc(C(F)(F)F)cc2)n1 (centres undefined)	2.39		
COc1ccc(C(=O)/C=C/c2cc3c([nH]c4ccccc43)c(-c3cc(OC)c(OC)c(OC)c3)n2)cc1	9.61		
O=C(/C=C/c1cc2c([nH]c3ccccc32)c(-c2ccc(F)cc2)n1)c1ccc(F)cc1	5.65		
CC1=CC2C(=O)c3nccc(N(C)C)c3C(=O)C2N=C1 (centres undefined) [listing 1 of 2 here]	3.29		
COc1cc(O)c(C(CO)C(O)CO)c2oc3cccc(O)c3c(=O)c12 (centres undefined)		9.7	
C=C[C@@]1(C)C=C2[C@@H](O[C@@H]3O[C@H](C)[C@H](O)[C@H](O)[C@H]3O)C[C@@H]3C(C)(C)[C@H](O[C@@H]4O[C@@H](C)[C@H](O)[C@@H](O)[C@H]4O[C@H]4O[C@H](CO)[C@@H](O)[C@H](O)[C@H]4O)CC[C@@]3(C)[C@@H]2CC1		5.6	
C=C[C@@]1(C)C=C2[C@@H](O[C@@H]3O[C@H](C)[C@H](O)[C@H](O)[C@H]3O)C[C@@H]3C(C)(C)[C@H](O[C@@H]4O[C@@H](C)[C@H](O)[C@@H](O)[C@H]4O)CC[C@@]3(C)[C@@H]2CC1		10.2	
CC(C)=CCc1c(O)cc2oc3cccc(O)c3c(=O)c2c1O			IC50 (HepG2): 1.49 µM

Structure (SMILES)	IC50 (A549; Homo sapiens, A549, 48 h) [µM]	IC50 (MCF7) [µM]	other results
Cc1cnc2c(c1)C(=O)C1N=CC=C(C=O)C1C2=O (centres undefined)	0.33		
COc1cc(O)c2c(c1O)C(=O)C1=C(C2=O)C(O)C(O)C(C)(O)C1 (centres undefined)		7.5	
Cc1cnc2c(c1)C(=O)C1C=CC=NC1C2=O (centres undefined)	2.23		
CC1=CC2C(=O)c3nccc(I)c3C(=O)C2N=C1 (centres undefined)	0.14		
COc1cc(C(=O)/C=C/c2cc3c([nH]c4ccccc43)c(-c3ccc(F)c(F)c3)n2)cc(OC)c1OC		8.7	
CC(=O)N1N=C(c2ccc(N)cc2)CC1c1cc2c([nH]c3ccccc32)c(-c2ccc(F)c(F)c2)n1 (centres undefined)	9.77		
C[C@]1(O)Cc2c(O)c3c(c(O)c2[C@H](O)[C@H]1O)C(=O)C=C(N1CCC(c2ccccc2)CC1)C3=O		4.81	
CCCCCCNC1=CC(=O)c2c(O)c3c(c(O)c2C1=O)C[C@](C)(O)[C@H](O)[C@H]3O		4.87	
C#CCOc1cc(O)c2c(c1)C(=O)c1cc(C)cc(O)c1C2=O		20	
CC(=O)N1N=C(c2ccc(N)cc2)CC1c1cc2c([nH]c3ccccc32)c(-c2ccc(C(F)(F)F)cc2)n1 (centres undefined)	13.2		
CCCCNC1=CC(=O)c2c(O)c3c(c(O)c2C1=O)C[C@](C)(O)[C@H](O)[C@H]3O		1.08	
Cc1cc(O)c2c(c1)C(=O)c1cc(O)c(CN3CCN(c4ccc(F)cc4)CC3)c(O)c1C2=O			IC50 (HepG2): 10.4 µM
O=C1c2c(O)ccnc2C(=O)C2C(c3ccccc3)=CC=NC12 (centres undefined)	14.5		
O=C(/C=C/c1cc2c([nH]c3ccccc32)c(-c2ccc(F)c(F)c2)n1)c1cccs1	6.76		
CC1=CC2C(=O)c3nccc(N(C)C)c3C(=O)C2N=C1 (centres undefined) [listing 2 of 2 here]			IC50 (A549; a549): 3.12 µM
CCN(CC)CC1CCc2c(n(C)c3ccccc23)C1=O (centres undefined)	0.07		
COC1=C(C)C(O)=CC2C(=O)c3c(ccc(OC)c3OC)C(=O)C12 (centres undefined)		10.2	
CCOP(=O)(OCC)C(C)(NC(=O)c1cc(O)c2c(c1)C(=O)c1cccc(O)c1C2=O)c1ccc(C)cc1 (centres undefined)			IC50 (HepG2): 15.1 µM
CCCNC1=CC(=O)c2c(O)c3c(c(O)c2C1=O)C[C@](C)(O)[C@H](O)[C@H]3O		14	
C=C[C@@]1(C)C=C2[C@@H](O[C@@H]3O[C@H](C)[C@H](O)[C@H](O)[C@H]3O)C[C@@H]3C(C)(C)[C@H](O[C@@H]4O[C@@H](C)[C@H](O)[C@@H](O)[C@H]4OC(C)=O)CC[C@@]3(C)[C@@H]2CC1	10.4		
O=C(NCCN1CCOCC1)c1cc(O)c2c(c1)C(=O)c1cc(O)cc(O)c1C2=O			IC50 (HepG2): 20 µM
